Results on three compounds are retold here after patent publication US9296709B2, “Manufacture of 2-(5-bromo-4-(4-cyclopropylnaphthalen-1-yl)-4H-1,2,4-triazol-3-ylthio)acetic acid” (ARDEA BIOSCIENCES, INC., priority 2012, dated 2016).

Molecules are shown by their SMILES. Converted amounts (≈) assume the structure as drawn.

The nature of series [1]: Solubility in acetate buffer (25 mM, pH 5), assayed by HPLC. The series is classed as physicochemical. As to conditions: acetate buffer 25 mM pH 5, 25° C.; for solubility at 1 day: acetate buffer, 25 °C, pH 5, aqueous buffer, thermodynamic from solid. The protocol:
Form 1 (˜25 mg) and acetate buffer (25 mM, pH 5, 4 mL), prepared with and without sodium chloride (ionic strength adjusted to =0.1M), were placed in a glass vial which was sealed and placed on a laboratory rotator in a 25° C. incubator. After 1, 5, and 7 days the samples were filtered and assayed by HPLC.
Form 2 (˜25 mg) and acetate buffer (25 mM, pH 5, 4 mL), prepared with and without sodium chloride (ionic strength adjusted to =0.1M), were placed in a glass vial which was sealed and placed on a laboratory rotator in a 25° C. incubator. After 1, 5, and 7 days the samples were filtered and assayed by HPLC.

Series [2] is described as follows: Gravimetric vapor sorption (GVS) study. The series is classed as physicochemical. The source says:
FIG. 12 illustrates a GVS study of form 1 and form 2. […] This property of decreased hygroscopicity greatly aids in the preparation of solid pharmaceutical dosage forms.

The nature of series [3]: Drug substance stability of packaged polymorph under accelerated / long term storage conditions. As to conditions: for degradation of packaged drug substance: double LDPE bag, heat sealed foil bag, HDPE container.
Method: Form 2 of 2-(5-bromo-4-(4-cyclopropylnaphthalen-1-yl)-4H-1,2,4-triazol-3-ylthio)acetate was tested under various conditions to determine drug substance stability. […] Packaging was in a double low density polyethylene plastic bags inside a HDPE container.
Series [4] can be described thus: Solid held in equilibrium with its saturated acetone solution at 60° C. It is filed as physicochemical. As to conditions: 60° C. for 6 days.

Regarding `O=C(O)CSc1nnc(Br)n1-c1ccc(C2CC2)c2ccccc12` [Form 2, 2-(5-bromo-4-(4-cyclopropylnaphthalen-1-yl)-4H-1,2,4-triazol-3-ylthio)acetic acid], the solubility is 0.2441 (pH 4.83) mg/mL in series [1] (Form 2, NaCl (I = 0.1), Day5, sample pH 4.83); 0.2157 (pH 4.85) mg/mL in series [1] (Form 2, NaCl (I = 0.1), Day 7, sample pH 4.85); 0.1867 (pH 4.91) mg/mL in series [1] (Form 2, No NaCl, Day 1, sample pH 4.91); 0.1957 (pH 4.73) mg/mL in series [1] (Form 2, No NaCl, Day5, sample pH 4.73); 0.1337 (pH 4.79) mg/mL in series [1] (Form 2, No NaCl, Day 7, sample pH 4.79). The compound further had a solubility at 1 day in series [1] (Form 2, NaCl (I = 0.1), Day 1) of 219 µg/mL (≈ 542 µM). The “adsorbed at high humidity (GVS)” value in series [2] was below 0.1 % w/w.

Take `O=C([O-])CSc1nnc(Br)n1-c1ccc(C2CC2)c2ccccc12.[Na+]` [Form A, sodium 2-(5-bromo-4-(4-cyclopropylnaphthalen-1-yl)-4H-1,2,4-triazol-3-ylthio)acetate]: the “stability in comparison to the amorphous solid state form of the carboxylic acid” value in series [3] is “improvement over the solid state amorphous free acid”. Further, the “degradation of packaged drug substance” value was “No degradation” in series [3] (6 months, accelerated conditions 40° C.-75% RH) and “no degradation” in series [3] (12 months, long term conditions 25° C.-60% RH).

Take `O=C(O)CSc1nnc(Br)n1-c1ccc(C2CC2)c2ccccc12` [Form 1, 2-(5-bromo-4-(4-cyclopropylnaphthalen-1-yl)-4H-1,2,4-triazol-3-ylthio)acetic acid]: in series [1] (Form 1, NaCl (I = 0.1), Day 1), the solubility at 1 day worked out at 300 µg/mL (≈ 741 µM). For the same compound, the “outcome of equilibration with saturated acetone solution” value in series [4] is given as “decomposition”. Moreover, in series [2], the “adsorbed at high humidity (GVS)” value is below 0.2 % w/w.
